We go through 22 compounds from patent US20190119284A1, “ErbB Inhibitors and Uses Thereof” (The Regents of the University of California, priority 2016, published 2019).

What all share (type): cell-based
The target of assay [1] is 2YF/3wt + NRG Ba/F3 cells (HER2YF/HER3wt) (Homo sapiens, UniProt P04626, Y1005F/Y1023F/Y1112F/Y1127F/Y1139F/Y1196F/Y1221F/Y1222F/Y1248F, cells depend on it). Briefly: Ba/F3 proliferation assay, 2YF/3wt + NRG. The settings on record: Tables 7 and 8; read-out: Ba/F3 line IC50, HER2YF/HER3 + NRG. From the text:
Ba/F3 cells are normally dependent on IL-3 signaling for their proliferation and survival, but can be made dependent on introduced oncogenic signals. We sequentially selected transduced Ba/F3 cells for populations stably expressing HER3 and then HER2. To ensure that all of the proliferative signal could be attributed to HER2/HER3 heterodimers, rather than HER2 homodimers, the 9 C-terminal tyrosines in HER2 were mutated to phenylalanine (HER2YF). We then withdrew IL-3 and supplemented the media with NRG to select for NRG dependent HER2YF/HER3wt cells (2YF/3wt).
For the 2YF/3wt cells, the parental cells were first transduced with HER3 according to the protocol above and were then spun down at 500×g for 5 min and re-suspended in media supplemented with 10 ng/mL IL-3 and 3 μg/mL puromycin (Invitrogen). Cells were maintained in these conditions for seven days, passaging as required. After seven days the cells were spun down, washed with fresh media, and then used for a subsequent round of transduction according to the protocol above with HER2YF virus. […] The cells were maintained in these conditions for seven days, passaging as required. After seven days the cells were spun down, washed with fresh media, and then suspended in media supplemented with 10 ng/mL of NRG. Cells were maintained in these conditions for seven days to select for a NRG dependent population of 2YF/3wt Ba/F3 cells that were then maintained as described above. The same protocol was used for the 2YF-L755S/3wt, 2YF-YVMA/3wt, and 2YF-VC/3wt cell lines using the indicated constructs.
Proliferation Assays. […] The following day media was changed to fresh media that contained either DMSO or the indicated concentration of drug plus NRG (50 ng/mL final concentration) as indicated. […] For all normalized assays, proliferation was normalized to the DMSO control condition. All graphs were plotted in GraphPad Prism 6 and fit with a non-linear regression of the log(inhibitor) vs response with a variable slope where shown. All graphs are averages (+/−standard deviation) of biological triplicates each performed in technical triplicate unless otherwise noted. If only one biological replicate was performed standard deviations were derived from the technical replicates.

A further assay has as its system HER2+/2VE Ba/F3 line. Briefly: Ba/F3 proliferation assay, HER2+/2VE. As to conditions: Tables 7 and 8. How it is done:
(§1) Proliferation Assays. For adherent cell lines, cells were plated onto opaque white 96 well plates (Greiner cat #655083) and allowed to adhere overnight. The following day media was changed to fresh media that contained either DMSO or the indicated concentration of drug plus NRG (50 ng/mL final concentration) as indicated. Plates were incubated at 37° C. for 72 h and proliferation was read out using Cell Titer Glo (Promega) according to the manufacturer's protocol. For Ba/F3 cell proliferation, cells, drug dilution, and any necessary growth factors (10 ng/mL IL-3 or 6.25 ng/mL NRG) were combined in a well of a 96 well plate. Plates were incubated at 37° C. for 48 h and proliferation was read out using Cell Titer Glo according to the manufacturer's protocol. For all normalized assays, proliferation was normalized to the DMSO control condition. All graphs were plotted in GraphPad Prism 6 and fit with a non-linear regression of the log(inhibitor) vs response with a variable slope where shown. All graphs are averages (+/−standard deviation) of biological triplicates each performed in technical triplicate unless otherwise noted. If only one biological replicate was performed standard deviations were derived from the technical replicates.

Another assay concerns the target T1, Axl+ Ba/F3 cells (Homo sapiens, UniProt P30530).
T1 sequence (P30530 1-894): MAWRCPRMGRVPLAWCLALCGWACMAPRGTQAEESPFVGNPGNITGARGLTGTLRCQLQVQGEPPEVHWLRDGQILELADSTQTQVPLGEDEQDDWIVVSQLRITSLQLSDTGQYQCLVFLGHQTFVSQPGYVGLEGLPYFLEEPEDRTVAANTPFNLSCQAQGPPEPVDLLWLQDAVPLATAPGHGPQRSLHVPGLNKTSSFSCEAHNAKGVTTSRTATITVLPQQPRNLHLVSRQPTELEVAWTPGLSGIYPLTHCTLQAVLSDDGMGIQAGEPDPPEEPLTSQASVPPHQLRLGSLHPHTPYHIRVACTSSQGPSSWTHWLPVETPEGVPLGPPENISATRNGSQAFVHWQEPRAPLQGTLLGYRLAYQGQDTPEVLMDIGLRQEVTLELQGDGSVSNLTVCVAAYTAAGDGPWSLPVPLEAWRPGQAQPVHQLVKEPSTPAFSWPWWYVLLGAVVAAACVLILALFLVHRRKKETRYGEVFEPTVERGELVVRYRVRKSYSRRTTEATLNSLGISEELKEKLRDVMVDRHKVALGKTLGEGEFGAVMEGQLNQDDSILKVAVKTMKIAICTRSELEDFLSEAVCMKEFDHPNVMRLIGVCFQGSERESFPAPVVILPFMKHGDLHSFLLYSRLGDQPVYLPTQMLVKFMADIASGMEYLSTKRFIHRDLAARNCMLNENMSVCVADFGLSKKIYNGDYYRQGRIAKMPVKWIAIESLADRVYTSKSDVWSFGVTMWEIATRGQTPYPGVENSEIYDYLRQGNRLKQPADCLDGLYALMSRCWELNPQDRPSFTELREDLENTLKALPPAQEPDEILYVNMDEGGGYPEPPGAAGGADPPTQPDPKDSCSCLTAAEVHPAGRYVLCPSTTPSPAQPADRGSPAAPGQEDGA
In words: Ba/F3 proliferation assay, Axl+. The settings on record: Tables 7 and 8; read-out: Ba/F3 line IC50, Axl+. How it is done:
(§2) To validate the screen and test the effectiveness of counter-screening with either the same 2YF/3wt Ba/F3 cell line or the parental Ba/F3's in the presence of IL-3 to remove cytotoxic primary hits, we first tested a panel of kinase inhibitors with established mechanisms of action.
For Axl+ cells, the transduced cells were spun down at 500×g for 5 min and resuspended in media supplemented with 10 ng/mL IL-3 and 3 μg/mL puromycin (Invitrogen). Cells were maintained in these conditions for 7 days, passaging as required. After 7 days the cells were spun down, washed with fresh media, and then suspended in IL-3 free media. The cells were maintained in these conditions for 2 weeks to select for an IL-3 independent population of Axl+ driven cells.
as §1

In assay [2] the test system is parental Ba/F3 cells + IL-3. Briefly: Ba/F3 proliferation assay, Parental + IL-3. The settings on record: Tables 7 and 8, read-out: Ba/F3 line IC50, Parental + IL-3. As for the experimental part: as §2, §1

Each structure is given as a SMILES string. Read-outs that look alike come from different tables or passages of the source. Bounds are passed on as bounds.

Chain of 2YF/3wt + NRG Ba/F3 cells (HER2YF/HER3wt) (P04626 whole entry Y1005F/Y1023F/Y1112F/Y1127F/Y1139F/Y1196F/Y1221F/Y1222F/Y1248F): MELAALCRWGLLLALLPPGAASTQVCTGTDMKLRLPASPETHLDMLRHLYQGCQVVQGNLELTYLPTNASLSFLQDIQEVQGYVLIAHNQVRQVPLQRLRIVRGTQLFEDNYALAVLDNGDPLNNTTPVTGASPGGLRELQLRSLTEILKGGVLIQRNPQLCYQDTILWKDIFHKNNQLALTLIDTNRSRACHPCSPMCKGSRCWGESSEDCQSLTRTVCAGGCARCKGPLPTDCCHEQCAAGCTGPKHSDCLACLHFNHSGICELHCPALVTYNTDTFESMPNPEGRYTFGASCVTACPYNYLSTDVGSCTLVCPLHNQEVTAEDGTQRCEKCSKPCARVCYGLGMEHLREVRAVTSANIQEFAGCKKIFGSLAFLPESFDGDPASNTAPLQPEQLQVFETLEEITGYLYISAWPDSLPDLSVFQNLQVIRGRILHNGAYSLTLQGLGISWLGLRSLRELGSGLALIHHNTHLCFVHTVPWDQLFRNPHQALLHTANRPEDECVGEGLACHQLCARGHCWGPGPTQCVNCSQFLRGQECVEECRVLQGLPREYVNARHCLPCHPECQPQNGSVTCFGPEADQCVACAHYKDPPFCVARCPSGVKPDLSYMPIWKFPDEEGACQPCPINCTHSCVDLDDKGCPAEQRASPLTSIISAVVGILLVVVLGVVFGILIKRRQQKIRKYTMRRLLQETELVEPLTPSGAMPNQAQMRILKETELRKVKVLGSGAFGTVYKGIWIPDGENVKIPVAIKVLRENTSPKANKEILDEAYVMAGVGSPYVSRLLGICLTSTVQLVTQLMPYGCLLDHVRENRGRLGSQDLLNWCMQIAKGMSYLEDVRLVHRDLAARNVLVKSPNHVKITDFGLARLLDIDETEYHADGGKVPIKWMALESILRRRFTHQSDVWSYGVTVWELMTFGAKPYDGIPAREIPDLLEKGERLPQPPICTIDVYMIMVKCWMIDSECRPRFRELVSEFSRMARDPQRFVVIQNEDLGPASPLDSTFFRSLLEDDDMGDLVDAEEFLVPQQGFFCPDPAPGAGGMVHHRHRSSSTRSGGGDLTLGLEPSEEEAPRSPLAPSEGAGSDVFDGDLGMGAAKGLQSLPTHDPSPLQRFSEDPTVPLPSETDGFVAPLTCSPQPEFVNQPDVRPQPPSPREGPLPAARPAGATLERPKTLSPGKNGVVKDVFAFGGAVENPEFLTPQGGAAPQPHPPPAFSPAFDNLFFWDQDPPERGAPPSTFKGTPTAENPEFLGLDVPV

Turning to `COc1ccc(-c2ccco2)cc1Nc1ncnc2[nH]nc(-c3cn[nH]c3)c12` [Cmpd 53B], the GI50 in assay [1] is 0.0139 µM; at Axl+ Ba/F3 cells it was > 10 µM. In addition, the IC50 is 0.0835 µM in the assay with HER2+/2VE Ba/F3 line (Mus musculus, BaF3) and > 10 µM in assay [2] (Mus musculus, BaF3).
On to `COc1ccc(-c2ccccc2)cc1Nc1ncnc2[nH]nc(-c3cccc(C(C)=O)c3)c12` [compound 185, 1-(3-(4-((4-methoxy-[1,1′-biphenyl]-3-yl)amino)-1H-pyrazolo[3,4-d]pyrimidin-3-yl)phenyl)ethanone], for which the figures for the GI50 (in assay [1]; at Axl+ Ba/F3 cells) were 0.148 µM and 0.257 µM, respectively. Moreover, the IC50 was 0.243 µM with HER2+/2VE Ba/F3 line (Mus musculus, BaF3) and 1.49 µM in assay [2] (Mus musculus, BaF3).
Taken in the same sequence, the figures for `COc1ccc(-c2ccccc2C)cc1Nc1ncnc2[nH]nc(-c3ccsc3)c12` [Cmpd 39A] were > 3.33 µM, > 10 µM, > 10 µM and > 10 µM.
In the same order, the values of `CC(=O)c1cccc(-c2n[nH]c3ncnc(Nc4cccc(-c5ccccc5)c4)c23)c1` [Cmpd 186B] are > 10 µM, > 10 µM, > 10 µM and > 10 µM.
Taken in the same sequence, the figures for `COc1ccc(-c2ccccc2)cc1Nc1ncnc2[nH]nc(-c3ccc(C(C)=O)cc3)c12` [Cmpd 191H] were > 10 µM, > 10 µM, > 10 µM and > 10 µM.
For the compound `COc1ccc(-c2ccccc2)cc1Nc1ncnc2[nH]nc(-c3ccc[nH]3)c12` [Cmpd 45C], the GI50 in assay [1] was 0.952 µM; on Axl+ Ba/F3 cells, > 3.33 µM. For the same compound, the IC50 in the assay on HER2+/2VE Ba/F3 line (Mus musculus, BaF3) is > 3.33 µM; in assay [2] (Mus musculus, BaF3), > 10 µM.
For the compound `COc1ccc(-c2ccccc2)cc1Nc1ncnc2[nH]nc(-c3ccc4ccccc4c3)c12` [Cmpd 190C], the GI50 in assay [1] stood at 0.862 µM; on Axl+ Ba/F3 cells, 0.643 µM. Moreover, the IC50 in the assay on HER2+/2VE Ba/F3 line (Mus musculus, BaF3) is 1.84 µM; in assay [2] (Mus musculus, BaF3), 1.51 µM.
For `COc1ccc(-c2ccccc2)cc1Nc1ncnc2[nH]nc(-c3ccoc3)c12` [Cmpd 13], the GI50 in assay [1] is 0.839 µM; at Axl+ Ba/F3 cells, 2.96 µM. Also, the IC50 with HER2+/2VE Ba/F3 line (Mus musculus, BaF3) is 3.4 µM; in assay [2] (Mus musculus, BaF3), > 10 µM.
Consider `COc1ccc(-c2n[nH]c3ncnc(Nc4cc(-c5ccccc5)ccc4OC)c23)cc1` [Cmpd 189B], for which the GI50 (in assay [1]; at Axl+ Ba/F3 cells) was > 10 µM in each case. The IC50 (in the assay with HER2+/2VE Ba/F3 line; in assay [2]) was > 10 µM each time.
On to `COc1ccc(-c2cccnc2)cc1Nc1ncnc2[nH]nc(-c3ccsc3)c12` [Cmpd 39D], for which the GI50 (in assay [1]; on Axl+ Ba/F3 cells) was > 10 µM in each case. Further, the IC50 is > 10 µM in the assay with HER2+/2VE Ba/F3 line (Mus musculus, BaF3) and > 10 µM in assay [2] (Mus musculus, BaF3).
In the case of `COc1ccc(-c2ccoc2)cc1Nc1ncnc2[nH]nc(-c3cn[nH]c3)c12` [Cmpd 57B], the GI50 is 0.0126 µM in assay [1] and > 10 µM at Axl+ Ba/F3 cells. For the same compound, the IC50 in the assay with HER2+/2VE Ba/F3 line (Mus musculus, BaF3) was 0.0829 µM; in assay [2] (Mus musculus, BaF3), > 10 µM.
`COc1ccc(-c2ccco2)cc1Nc1ncnc2[nH]nc(-c3ccco3)c12` [55A]: the GI50 in assay [1] is 0.0395 µM; on Axl+ Ba/F3 cells, > 3.33 µM. Further, the IC50 with HER2+/2VE Ba/F3 line (Mus musculus, BaF3) is 0.908 µM; in assay [2] (Mus musculus, BaF3), > 10 µM.
Taken in the same sequence, the figures for `CC(=O)c1cccc(-c2n[nH]c3ncnc(Nc4cc(-c5ccccc5)ccc4O)c23)c1` [Cmpd 191A] were 0.15 µM, 0.506 µM, 0.769 µM and 2.91 µM.
In the same order, the values of `COc1ccc(-c2ccccc2)cc1Nc1ncnc2[nH]nc(-c3cccs3)c12` [Cmpd 45B] are 0.745 µM, 4.03 µM, 3.61 µM and > 10 µM.
In the same order, the values of `CC(=O)c1cccc(-c2n[nH]c3ncnc(Nc4cc(-c5ccccc5)ccc4C)c23)c1` [Cmpd 5-001A] are > 3.33 µM, > 3.33 µM, > 3.33 µM and > 10 µM.
Take `COc1ccc(-c2cccc(C)c2)cc1Nc1ncnc2[nH]nc(-c3ccsc3)c12` [Cmpd 39B]: the figures for the GI50 (in assay [1]; at Axl+ Ba/F3 cells) were > 3.33 µM and 1.76 µM, respectively. In addition, the IC50 in the assay on HER2+/2VE Ba/F3 line (Mus musculus, BaF3) was > 3.33 µM; in assay [2] (Mus musculus, BaF3), > 3.33 µM.
As for `COc1ccc(N2CCOCC2)cc1Nc1ncnc2[nH]nc(-c3ccsc3)c12` [Cmpd 41A], the GI50 in assay [1] was > 3.33 µM; on Axl+ Ba/F3 cells it was > 10 µM. The IC50 is > 10 µM with HER2+/2VE Ba/F3 line (Mus musculus, BaF3) and > 10 µM in assay [2] (Mus musculus, BaF3).
As to `CC(=O)c1cccc(-c2n[nH]c3ncnc(Nc4ccc(Oc5ccccc5)cc4)c23)c1` [Cmpd 5-001B], the GI50 (in assay [1]; at Axl+ Ba/F3 cells) was > 10 µM in each case. The IC50 in the assay with HER2+/2VE Ba/F3 line (Mus musculus, BaF3) is > 10 µM; in assay [2] (Mus musculus, BaF3) it was > 10 µM.
Regarding `COc1ccc(-c2ccccc2)cc1Nc1ncnc2[nH]nc(-c3ccsc3)c12` [Cmpd 191F], the GI50 was found to be 0.376 µM in assay [1] and 2.15 µM on Axl+ Ba/F3 cells. Further, the IC50 with HER2+/2VE Ba/F3 line (Mus musculus, BaF3) stood at 1.7 µM; in assay [2] (Mus musculus, BaF3), 2.51 µM.
On to `COc1ccc(C(C)(C)C)cc1Nc1ncnc2[nH]nc(-c3cccc(C(C)=O)c3)c12` [Cmpd 190D], for which the GI50 (in assay [1]; on Axl+ Ba/F3 cells) was > 10 µM in each case. The IC50 in the assay on HER2+/2VE Ba/F3 line (Mus musculus, BaF3) is > 10 µM; in assay [2] (Mus musculus, BaF3) it was > 10 µM.
Consider `COc1ccc(-c2ccccc2)cc1Nc1ncnc2[nH]nc(-c3ccco3)c12` [Cmpd 45A], for which the GI50 is 0.043 µM in assay [1] and 1.21 µM at Axl+ Ba/F3 cells. The IC50 in the assay with HER2+/2VE Ba/F3 line (Mus musculus, BaF3) is 0.978 µM; in assay [2] (Mus musculus, BaF3) it was > 10 µM.
On to `COc1ccc(-c2ccoc2)cc1Nc1ncnc2[nH]nc(-c3ccco3)c12` [Cmpd 57A], for which the GI50 in assay [1] was 0.021 µM; on Axl+ Ba/F3 cells it was > 10 µM. Further, the IC50 with HER2+/2VE Ba/F3 line (Mus musculus, BaF3) was 0.46 µM; in assay [2] (Mus musculus, BaF3) it was > 10 µM.
